Legend:
[1] = target: Cytoplasmic tyrosine-protein kinase BMX (Homo sapiens) (UniProt P51813); assay: Bmx(h) Kinase panel; conditions: Compound concentration 1.0 uM, tested as the 2H-labelled form
[2] = target: Serine/threonine-protein kinase BRSK1 (Homo sapiens) (UniProt Q8TDC3); assay: BrSK1(h) Kinase panel; conditions: Compound concentration 1.0 uM, tested as the 2H-labelled form
[3] = target: Serine/threonine-protein kinase B-raf (Homo sapiens) (UniProt P15056); assay: B-Raf(h) Kinase panel; conditions: Compound concentration 1.0 uM, tested as the 2H-labelled form
[4] = target: Calcium/calmodulin-dependent protein kinase type II subunit gamma (Homo sapiens) (UniProt Q13555); assay: CaMKIIgamma(h) Kinase panel; conditions: Compound concentration 1.0 uM, tested as the 2H-labelled form
Chain of Calcium/calmodulin-dependent protein kinase type II subunit gamma (Homo sapiens) (Q13555 whole entry): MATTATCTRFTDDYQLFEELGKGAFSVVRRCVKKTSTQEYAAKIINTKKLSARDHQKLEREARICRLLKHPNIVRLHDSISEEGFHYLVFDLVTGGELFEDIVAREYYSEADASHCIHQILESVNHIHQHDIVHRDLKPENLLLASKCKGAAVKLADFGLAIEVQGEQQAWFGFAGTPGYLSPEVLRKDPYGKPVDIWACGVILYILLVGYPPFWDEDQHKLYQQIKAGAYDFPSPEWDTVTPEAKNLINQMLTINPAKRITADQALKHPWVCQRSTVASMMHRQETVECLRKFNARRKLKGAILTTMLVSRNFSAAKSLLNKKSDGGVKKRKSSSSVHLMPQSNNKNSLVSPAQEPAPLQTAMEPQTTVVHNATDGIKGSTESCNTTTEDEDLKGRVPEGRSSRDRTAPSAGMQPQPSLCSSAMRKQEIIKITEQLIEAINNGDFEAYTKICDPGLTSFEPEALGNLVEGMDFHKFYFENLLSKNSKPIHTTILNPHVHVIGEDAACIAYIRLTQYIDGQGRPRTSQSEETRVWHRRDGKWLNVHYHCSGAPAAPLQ

[5] = target: Calcium/calmodulin-dependent protein kinase type II subunit delta (Homo sapiens) (UniProt Q13557); assay: CaMKIIdelta(h) Kinase panel; conditions: Compound concentration 1.0 uM, tested as the 2H-labelled form
[6] = target: Cyclin-dependent kinase-like 3 (Homo sapiens) (UniProt Q8IVW4); assay: CDKL3(h) Kinase panel; conditions: Compound concentration 1.0 uM, tested as the 2H-labelled form
[7] = target: Death-associated protein kinase 2 (Homo sapiens) (UniProt Q9UIK4); assay: DAPK2(h) Kinase panel; conditions: Compound concentration 1.0 uM, tested as the 2H-labelled form
[8] = target: Ephrin type-B receptor 2 (Homo sapiens) (UniProt P29323); assay: EphB2(h) Kinase panel; conditions: Compound concentration 1.0 uM, tested as the 2H-labelled form
[9] = target: Ephrin type-B receptor 1 (Homo sapiens) (UniProt P54762); assay: EphB1(h) Kinase panel; conditions: Compound concentration 1.0 uM, tested as the 2H-labelled form
[10] = target: Receptor tyrosine-protein kinase erbB-2 (Homo sapiens) (UniProt P04626); assay: ErbB2(h) Kinase panel; conditions: Compound concentration 1.0 uM, tested as the 2H-labelled form
[11] = target: Receptor tyrosine-protein kinase erbB-4 (Homo sapiens) (UniProt Q15303); assay: ErbB4(h) Kinase panel; conditions: Compound concentration 1.0 uM, tested as the 2H-labelled form
Chain of Receptor tyrosine-protein kinase erbB-4 (Homo sapiens) (Q15303 whole entry): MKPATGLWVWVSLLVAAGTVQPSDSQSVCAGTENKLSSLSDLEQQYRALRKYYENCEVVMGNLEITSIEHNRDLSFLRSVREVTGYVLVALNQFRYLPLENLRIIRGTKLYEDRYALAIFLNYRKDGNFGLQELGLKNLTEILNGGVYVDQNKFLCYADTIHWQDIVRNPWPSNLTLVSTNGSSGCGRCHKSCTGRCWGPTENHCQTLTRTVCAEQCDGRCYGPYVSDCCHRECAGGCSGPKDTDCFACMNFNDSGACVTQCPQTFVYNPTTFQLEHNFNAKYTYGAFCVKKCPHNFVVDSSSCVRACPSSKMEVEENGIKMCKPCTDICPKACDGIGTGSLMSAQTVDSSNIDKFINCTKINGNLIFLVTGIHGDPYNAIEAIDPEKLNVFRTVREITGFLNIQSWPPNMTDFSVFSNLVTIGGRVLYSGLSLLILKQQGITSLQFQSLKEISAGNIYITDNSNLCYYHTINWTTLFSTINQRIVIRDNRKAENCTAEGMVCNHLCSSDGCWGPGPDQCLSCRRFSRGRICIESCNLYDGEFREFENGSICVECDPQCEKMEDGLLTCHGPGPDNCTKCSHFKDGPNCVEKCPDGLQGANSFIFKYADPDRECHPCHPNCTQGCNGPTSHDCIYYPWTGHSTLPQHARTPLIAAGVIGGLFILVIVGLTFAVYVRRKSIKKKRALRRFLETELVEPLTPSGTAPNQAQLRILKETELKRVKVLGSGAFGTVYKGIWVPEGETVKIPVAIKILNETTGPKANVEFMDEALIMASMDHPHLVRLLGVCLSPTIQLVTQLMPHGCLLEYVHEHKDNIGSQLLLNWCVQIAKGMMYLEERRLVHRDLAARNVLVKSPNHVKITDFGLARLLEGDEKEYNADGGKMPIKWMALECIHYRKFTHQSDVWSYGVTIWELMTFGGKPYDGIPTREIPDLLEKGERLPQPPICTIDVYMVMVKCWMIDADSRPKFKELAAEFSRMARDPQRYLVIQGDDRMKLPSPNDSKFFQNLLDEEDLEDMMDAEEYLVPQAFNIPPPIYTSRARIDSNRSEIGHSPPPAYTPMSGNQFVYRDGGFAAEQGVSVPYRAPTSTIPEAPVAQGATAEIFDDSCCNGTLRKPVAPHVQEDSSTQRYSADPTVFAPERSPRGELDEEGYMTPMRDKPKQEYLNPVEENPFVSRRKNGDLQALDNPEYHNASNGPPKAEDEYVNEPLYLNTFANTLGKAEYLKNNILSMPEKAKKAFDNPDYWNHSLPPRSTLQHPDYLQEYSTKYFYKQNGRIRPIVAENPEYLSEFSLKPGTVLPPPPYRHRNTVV

[12] = target: Tyrosine-protein kinase Fgr (Homo sapiens) (UniProt P09769); assay: Fgr(h) Kinase panel; conditions: Compound concentration 1.0 uM, tested as the 2H-labelled form
[13] = target: Homeodomain-interacting protein kinase 4 (Homo sapiens) (UniProt Q8NE63); assay: HIPK4(h) Kinase panel; conditions: Compound concentration 1.0 uM, tested as the 2H-labelled form
[14] = target: Insulin-like growth factor 1 receptor (Homo sapiens) (UniProt P08069); assay: IGF-1R(h), activated Kinase panel; conditions: Compound concentration 1.0 uM, tested as the 2H-labelled form
[15] = target: Interleukin-1 receptor-associated kinase 1 (Homo sapiens) (UniProt P51617); assay: IRAK1(h) Kinase panel; conditions: Compound concentration 1.0 uM, tested as the 2H-labelled form
Homo sapiens = species on record: Homo sapiens; assay: MAPK2(h) Kinase panel; conditions: Compound concentration 1.0 uM, tested as the 2H-labelled form
[16] = target: Mitogen-activated protein kinase kinase kinase 3 (Homo sapiens) (UniProt Q99759); assay: MEKK3(h) Kinase panel; conditions: Compound concentration 1.0 uM, tested as the 2H-labelled form
[17] = target: Misshapen-like kinase 1 (Homo sapiens) (UniProt Q8N4C8); assay: MINK(h) Kinase panel; conditions: Compound concentration 1.0 uM, tested as the 2H-labelled form
[18] = target: Serine/threonine-protein kinase MRCK beta (Homo sapiens) (UniProt Q9Y5S2); assay: MRCKbeta(h) Kinase panel; conditions: Compound concentration 1.0 uM, tested as the 2H-labelled form
Chain of Serine/threonine-protein kinase MRCK beta (Homo sapiens) (Q9Y5S2 whole entry): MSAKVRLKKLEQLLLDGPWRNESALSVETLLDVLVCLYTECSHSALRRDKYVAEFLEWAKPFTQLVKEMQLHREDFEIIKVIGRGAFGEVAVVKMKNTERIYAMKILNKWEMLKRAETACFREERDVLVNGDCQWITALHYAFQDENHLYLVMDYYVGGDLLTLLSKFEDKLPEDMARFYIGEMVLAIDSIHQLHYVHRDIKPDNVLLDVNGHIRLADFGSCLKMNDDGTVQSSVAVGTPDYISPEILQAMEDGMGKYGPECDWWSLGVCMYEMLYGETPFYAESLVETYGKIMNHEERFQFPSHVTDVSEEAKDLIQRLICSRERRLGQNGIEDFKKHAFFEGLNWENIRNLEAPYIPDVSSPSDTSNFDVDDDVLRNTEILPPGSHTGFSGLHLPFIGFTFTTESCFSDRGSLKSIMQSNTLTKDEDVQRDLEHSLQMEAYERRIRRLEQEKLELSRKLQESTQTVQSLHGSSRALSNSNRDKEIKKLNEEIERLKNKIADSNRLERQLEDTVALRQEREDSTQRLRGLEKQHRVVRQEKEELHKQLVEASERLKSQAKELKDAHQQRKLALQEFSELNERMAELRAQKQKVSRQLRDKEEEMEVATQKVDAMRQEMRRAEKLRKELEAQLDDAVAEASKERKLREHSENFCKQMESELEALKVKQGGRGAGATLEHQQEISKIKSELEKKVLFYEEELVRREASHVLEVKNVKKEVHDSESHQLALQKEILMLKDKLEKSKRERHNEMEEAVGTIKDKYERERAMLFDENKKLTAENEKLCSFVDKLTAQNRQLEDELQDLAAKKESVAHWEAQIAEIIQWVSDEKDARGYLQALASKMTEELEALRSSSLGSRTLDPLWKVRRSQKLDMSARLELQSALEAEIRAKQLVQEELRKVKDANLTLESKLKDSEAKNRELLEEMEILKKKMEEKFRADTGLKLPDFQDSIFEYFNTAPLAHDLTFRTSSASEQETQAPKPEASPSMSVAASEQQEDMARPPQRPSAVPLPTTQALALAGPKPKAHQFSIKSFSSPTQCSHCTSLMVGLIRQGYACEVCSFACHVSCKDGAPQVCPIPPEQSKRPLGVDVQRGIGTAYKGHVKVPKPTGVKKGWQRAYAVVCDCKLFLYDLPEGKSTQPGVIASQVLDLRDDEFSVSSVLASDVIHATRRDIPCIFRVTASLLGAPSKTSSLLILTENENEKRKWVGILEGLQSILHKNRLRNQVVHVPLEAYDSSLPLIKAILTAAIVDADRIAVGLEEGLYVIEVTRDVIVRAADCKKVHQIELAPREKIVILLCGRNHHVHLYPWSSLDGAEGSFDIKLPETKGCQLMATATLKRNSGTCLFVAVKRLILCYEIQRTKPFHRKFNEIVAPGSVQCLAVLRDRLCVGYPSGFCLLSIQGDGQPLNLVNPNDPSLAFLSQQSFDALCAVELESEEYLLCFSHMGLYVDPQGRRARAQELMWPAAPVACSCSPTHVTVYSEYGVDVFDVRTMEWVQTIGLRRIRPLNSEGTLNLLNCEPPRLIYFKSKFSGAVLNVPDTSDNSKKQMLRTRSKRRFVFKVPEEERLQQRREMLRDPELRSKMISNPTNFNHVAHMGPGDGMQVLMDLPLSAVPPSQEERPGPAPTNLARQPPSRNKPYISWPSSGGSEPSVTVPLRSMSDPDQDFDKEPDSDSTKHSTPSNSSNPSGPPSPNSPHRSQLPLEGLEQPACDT

[19] = target: Serine/threonine-protein kinase 24 (Homo sapiens) (UniProt Q9Y6E0); assay: MST3(h) Kinase panel; conditions: Compound concentration 1.0 uM, tested as the 2H-labelled form
[20] = target: FKBP12A/mTOR (Homo sapiens) (UniProt P62942+P42345); assay: mTOR/FKBP12(h) Kinase panel; type: protein-complex assay; conditions: Compound concentration 1.0 uM, tested as the 2H-labelled form
Chain of FKBP12A/mTOR (Homo sapiens) (P62942 2-108 limits assumed, other chains not shown): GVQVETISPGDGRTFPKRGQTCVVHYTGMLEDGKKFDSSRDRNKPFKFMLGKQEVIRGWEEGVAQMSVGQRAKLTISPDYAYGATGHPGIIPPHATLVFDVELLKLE

[21] = target: Myosin-IIIb (Homo sapiens) (UniProt Q8WXR4); assay: MYO3B(h) Kinase panel; conditions: Compound concentration 1.0 uM, tested as the 2H-labelled form
[22] = target: Serine/threonine-protein kinase Nek7 (Homo sapiens) (UniProt Q8TDX7); assay: NEK7(h) Kinase panel; conditions: Compound concentration 1.0 uM, tested as the 2H-labelled form
[23] = target: Serine/threonine-protein kinase NIM1 (Homo sapiens) (UniProt Q8IY84); assay: NIM1(h) Kinase panel; conditions: Compound concentration 1.0 uM, tested as the 2H-labelled form
[24] = target: PAS domain-containing serine/threonine-protein kinase (Homo sapiens) (UniProt Q96RG2); assay: PASK(h) Kinase panel; conditions: Compound concentration 1.0 uM, tested as the 2H-labelled form
[25] = target: Eukaryotic translation initiation factor 2-alpha kinase 3 (Homo sapiens) (UniProt Q9NZJ5); assay: PEK(h) Kinase panel; conditions: Compound concentration 1.0 uM, tested as the 2H-labelled form
[26] = target: [Pyruvate dehydrogenase (acetyl-transferring)] kinase isozyme 2, mitochondrial (Homo sapiens) (UniProt Q15119); assay: PDHK2(h) Kinase panel; conditions: Compound concentration 1.0 uM, tested as the 2H-labelled form
[27] = target: Serine/threonine-protein kinase pim-3 (Homo sapiens) (UniProt Q86V86); assay: Pim-3(h) Kinase panel; conditions: Compound concentration 1.0 uM, tested as the 2H-labelled form
[28] = target: cGMP-dependent protein kinase 2 (Homo sapiens) (UniProt Q13237); assay: PRKG2(h) Kinase panel; conditions: Compound concentration 1.0 uM, tested as the 2H-labelled form
[29] = target: Serine/threonine-protein kinase N2 (Homo sapiens) (UniProt Q16513); assay: PRK2(h) Kinase panel; conditions: Compound concentration 1.0 uM, tested as the 2H-labelled form
[30] = target: Protein-tyrosine kinase 2-beta (Homo sapiens) (UniProt Q14289); assay: Pyk2(h) Kinase panel; conditions: Compound concentration 1.0 uM, tested as the 2H-labelled form
[31] = target: Proto-oncogene tyrosine-protein kinase receptor Ret (Homo sapiens) (UniProt P07949); assay: Ret(h) Kinase panel; conditions: Compound concentration 1.0 uM, tested as the 2H-labelled form
[32] = target: Proto-oncogene tyrosine-protein kinase ROS (Homo sapiens) (UniProt P08922); assay: Ros(h) Kinase panel; conditions: Compound concentration 1.0 uM, tested as the 2H-labelled form
[33] = target: SNF-related serine/threonine-protein kinase (Homo sapiens) (UniProt Q9NRH2); assay: SNRK(h) Kinase panel; conditions: Compound concentration 1.0 uM, tested as the 2H-labelled form
[34] = target: Serine/threonine-protein kinase 25 (Homo sapiens) (UniProt O00506); assay: STK25(h) Kinase panel; conditions: Compound concentration 1.0 uM, tested as the 2H-labelled form
[35] = target: Serine/threonine-protein kinase 32A (Homo sapiens) (UniProt Q8WU08); assay: STK32A(h) Kinase panel; conditions: Compound concentration 1.0 uM, tested as the 2H-labelled form
[36] = target: Serine/threonine-protein kinase 32B (Homo sapiens) (UniProt Q9NY57); assay: STK32B(h) Kinase panel; conditions: Compound concentration 1.0 uM, tested as the 2H-labelled form
[37] = target: Serine/threonine-protein kinase 32C (Homo sapiens) (UniProt Q86UX6); assay: STK32C(h) Kinase panel; conditions: Compound concentration 1.0 uM, tested as the 2H-labelled form
[38] = target: Tyrosine-protein kinase SYK (Homo sapiens) (UniProt P43405); assay: Syk(h) Kinase panel; conditions: Compound concentration 1.0 uM, tested as the 2H-labelled form
[39] = target: Serine/threonine-protein kinase TAO1 (Homo sapiens) (UniProt Q7L7X3); assay: TAO1(h) Kinase panel; conditions: Compound concentration 1.0 uM, tested as the 2H-labelled form
[40] = target: BDNF/NT-3 growth factors receptor (Homo sapiens) (UniProt Q16620); assay: TrkB(h) Kinase panel; conditions: Compound concentration 1.0 uM, tested as the 2H-labelled form
[41] = target: Testis-specific serine/threonine-protein kinase 4 (Homo sapiens) (UniProt Q6SA08); assay: TSSK4(h) Kinase panel; conditions: Compound concentration 1.0 uM, tested as the 2H-labelled form
[42] = target: Phosphatidylinositol 4,5-bisphosphate 3-kinase catalytic subunit beta isoform (Homo sapiens) (UniProt P42338); assay: PI3 Kinase (p110b/p85a)(h) Kinase panel; conditions: Compound concentration 1.0 uM, tested as the 2H-labelled form
[43] = target: Phosphatidylinositol 4,5-bisphosphate 3-kinase catalytic subunit gamma isoform (Homo sapiens) (UniProt P48736); assay: PI3 Kinase (p120g)(h) Kinase panel; conditions: Compound concentration 1.0 uM, tested as the 2H-labelled form
[44] = target: Histamine H2 receptor (Homo sapiens) (UniProt P25021); conditions: Compound concentration 10.0 uM, tested as the 2H-labelled form
[45] = target: Histamine H3 receptor (Homo sapiens) (UniProt Q9Y5N1); conditions: Compound concentration 10.0 uM, tested as the 2H-labelled form
[46] = target: Alpha-2B adrenergic receptor (Homo sapiens) (UniProt P18089); conditions: Compound concentration 10.0 uM, tested as the 2H-labelled form
[47] = target: Beta-1 adrenergic receptor (Homo sapiens) (UniProt P08588); conditions: Compound concentration 10.0 uM, tested as the 2H-labelled form
Chain of Beta-1 adrenergic receptor (Homo sapiens) (P08588 whole entry, looked up): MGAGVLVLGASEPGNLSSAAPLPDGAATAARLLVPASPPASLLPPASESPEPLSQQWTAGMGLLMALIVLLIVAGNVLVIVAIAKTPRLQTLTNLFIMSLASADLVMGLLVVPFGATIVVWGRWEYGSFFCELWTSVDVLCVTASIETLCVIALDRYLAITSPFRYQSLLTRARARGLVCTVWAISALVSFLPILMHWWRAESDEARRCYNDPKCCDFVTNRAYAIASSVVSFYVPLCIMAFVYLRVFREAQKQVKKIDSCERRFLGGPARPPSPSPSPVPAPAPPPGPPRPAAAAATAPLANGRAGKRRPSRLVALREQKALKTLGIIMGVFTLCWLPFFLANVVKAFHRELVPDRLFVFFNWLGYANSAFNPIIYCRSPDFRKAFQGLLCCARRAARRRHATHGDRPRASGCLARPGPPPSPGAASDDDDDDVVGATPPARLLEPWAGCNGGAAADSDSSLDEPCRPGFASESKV

[48] = target: Muscarinic acetylcholine receptor M4 (Homo sapiens) (UniProt P08173); conditions: Compound concentration 10.0 uM, tested as the 2H-labelled form
Rattus norvegicus = species on record: Rattus norvegicus; conditions: Compound concentration 10.0 uM, tested as the 2H-labelled form
[49] = target: Phosphorylase b kinase gamma catalytic chain, testis/liver isoform (Homo sapiens) (UniProt P15735); assay: PhKgamma2(h) Kinase panel; conditions: Compound concentration 1.0 uM, tested as the 2H-labelled form

Chain of Serine/threonine-protein kinase BRSK1 (Homo sapiens) (Q8TDC3 whole entry): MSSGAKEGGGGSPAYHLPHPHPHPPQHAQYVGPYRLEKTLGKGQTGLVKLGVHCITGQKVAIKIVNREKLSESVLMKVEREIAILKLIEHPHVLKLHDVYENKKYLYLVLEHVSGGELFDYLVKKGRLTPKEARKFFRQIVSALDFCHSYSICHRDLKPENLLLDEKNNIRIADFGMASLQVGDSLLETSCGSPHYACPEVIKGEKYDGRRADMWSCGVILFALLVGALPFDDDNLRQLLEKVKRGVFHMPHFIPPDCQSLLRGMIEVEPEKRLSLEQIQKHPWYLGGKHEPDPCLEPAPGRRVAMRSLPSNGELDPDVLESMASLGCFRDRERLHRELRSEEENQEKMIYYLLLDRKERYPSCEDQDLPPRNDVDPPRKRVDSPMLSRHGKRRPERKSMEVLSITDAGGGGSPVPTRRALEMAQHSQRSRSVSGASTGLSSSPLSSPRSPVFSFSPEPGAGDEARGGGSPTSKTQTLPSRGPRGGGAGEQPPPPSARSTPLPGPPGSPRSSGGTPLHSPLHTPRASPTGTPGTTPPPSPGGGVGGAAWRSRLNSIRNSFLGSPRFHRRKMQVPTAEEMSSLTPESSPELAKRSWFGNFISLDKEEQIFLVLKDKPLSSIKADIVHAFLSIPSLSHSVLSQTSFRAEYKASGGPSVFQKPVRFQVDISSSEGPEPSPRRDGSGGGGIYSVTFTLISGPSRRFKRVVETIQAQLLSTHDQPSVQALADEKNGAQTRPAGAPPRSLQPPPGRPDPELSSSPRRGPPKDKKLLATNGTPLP

inhibition [1]: 19% | inhibition [2]: 13% | inhibition [3]: 16% | inhibition [4]: -2% | inhibition [5]: -6% | inhibition [6]: -7% | inhibition [8]: 3% | inhibition [9]: 3% | inhibition [10]: 9% | inhibition [11]: 19% | inhibition [12]: 7% | inhibition [13]: 8% | inhibition [14]: 1% | inhibition [15]: 15% | inhibition (Homo sapiens): 6% | inhibition [16]: -4% | inhibition [17]: 2% | inhibition [18]: 2% | inhibition [19]: -2% | inhibition [20]: 5% | inhibition [21]: 12% | inhibition [22]: 5% | inhibition [23]: 13% | inhibition [24]: 24% | inhibition [25]: 11% | inhibition [26]: 26% | inhibition [27]: 4% | inhibition [28]: 11% | inhibition [29]: -6% | inhibition [30]: -2% | inhibition [31]: 14% | inhibition [32]: -2% | inhibition [33]: 4% | inhibition [34]: 21% | inhibition [35]: 9% | inhibition [36]: 0% | inhibition [37]: 4% | inhibition [38]: -8% | inhibition [39]: -5% | inhibition [40]: -5% | inhibition [41]: 5% | inhibition [42]: 0% | inhibition [43]: 2% | inhibition [44]: -1.3% | inhibition [45]: -1.16% | inhibition [46]: 2.83% | inhibition [47]: -1.12% | inhibition [48]: 1.83% | inhibition (Rattus norvegicus): 50.9% | inhibition [49]: -9%
SMILES: CC1(C)Cn2nc(-c3ccc(F)cn3)c(-c3ccnc4[nH]ncc34)c2CO1
inhibition [7]: -7%

From ChEMBL document CHEMBL5058645, “Data for DCP probe JNJ-6204” (2022)
